Source: PubChem BioAssay (NCI)
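A five-concentration, 48-hour dose response in 96-well plates underlies each endpoint, interpolated linearly between surrounding concentrations. GI50: concentration for 50% inhibition of growth. TGI: concentration producing complete growth inhibition.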

Experiments:
Assay in all cases: NCI-60 cell line screen, 48 h
786-0 renal = tested on: 786-0 renal
LOX IMVI melanoma = tested on: LOX IMVI melanoma
U251 CNS = tested on: U251 CNS
PC-3 prostate = tested on: PC-3 prostate
EKVX NSCLC = tested on: EKVX NSCLC
KM12 colon = tested on: KM12 colon
UO-31 renal = tested on: UO-31 renal
IGROV1 ovarian = tested on: IGROV1 ovarian
K-562 leukemia = tested on: K-562 leukemia
MALME-3M melanoma = tested on: MALME-3M melanoma

SMILES	GI50 (786-0 renal) [µM]	TGI (786-0 renal) [µM]	GI50 (LOX IMVI melanoma) [µM]	TGI (LOX IMVI melanoma) [µM]	GI50 (U251 CNS) [µM]	TGI (U251 CNS) [µM]	GI50 (PC-3 prostate) [µM]	TGI (PC-3 prostate) [µM]	GI50 (EKVX NSCLC) [µM]	TGI (EKVX NSCLC) [µM]	GI50 (KM12 colon) [µM]	TGI (KM12 colon) [µM]	GI50 (UO-31 renal) [µM]	TGI (UO-31 renal) [µM]	GI50 (IGROV1 ovarian) [µM]	TGI (IGROV1 ovarian) [µM]	GI50 (K-562 leukemia) [µM]	TGI (K-562 leukemia) [µM]	GI50 (MALME-3M melanoma) [µM]	TGI (MALME-3M melanoma) [µM]
Nc1nc(SN=Nc2ccc(S(N)(=O)=O)cc2)c2[nH]cnc2n1	0.407	> 100	0.219	12.6	2.66	> 100	1.64	> 100	0.714	> 100	1.64	20	0.455	> 100	1.65	> 100	0.299	> 100	1.87	> 60.6
CC(=O)/C=C/c1ccc(C#Cc2ccccc2)s1	12.5	25	18	31.9	16.8	30.5	15.7	29	17.7	31.6	6.1	36.7	14.3	27.3	18.3	32.2	19.8	56.4	20.5	40.7
COc1ccc2c(O)cc3c(c2c1)[C@H](CCl)CN3C(=O)c1cc2cc(NC(=O)CCN3CCOCC3)ccc2[se]1	< 0.001	< 0.001	< 0.001	0.0101	< 0.001	0.385	< 0.001	0.0699	< 0.001	0.00471	< 0.001		< 0.001	< 0.001	< 0.001	1.36	< 0.001	> 10	< 0.001	< 0.001
Oc1cn(-c2ccc(Cl)cc2)nc1-c1n[nH]c(=S)n1C1CCCCC1	1.82	> 100	0.451	> 100	0.467	> 100	11.4	> 66.9	15.5	> 100	1.04	17.5	17	> 100	24.2	> 100	< 0.0427			> 100
CC(C)CNC(=O)O		> 100		> 100		> 100		> 100		> 100		> 100		> 100		> 100		> 100		> 100
N=C(N)SCc1cccc(-c2nc3ccccc3c(=O)o2)c1		> 100		> 100		> 100		> 100		> 100		> 100		> 100		> 100		> 100		> 100
CCOC(=O)c1c[nH]c2oc(/C=N/N3CC(CN4CCOCC4)OC3=O)cc2c1=O (stereo not drawn)		> 100		> 100		> 100		> 100		> 100		> 100		> 100		> 100		> 100		> 100
COc1ccc2c(c1)C(C)Cc1c(ncnc1-n1c(C)nc3ccccc31)N2C (stereo not drawn)	5.83	29.2	4.42	23.9	4.51	17.7	3.25	27.3	3.94	21.8	2.59	17.8	4.59	20.7	6.3	36.2	0.452	13.3	11.3	25.2
COc1cc2ncn(-c3cc(OCCc4ccccc4)c(C(N)=O)s3)c2cc1OC	> 25	> 25	> 25	> 25	> 25	> 25	> 25	> 25	> 25	> 25	18.9	> 25	8.16	> 25	> 25	> 25	> 25	> 25	> 25	> 25
CC(C)OC(=O)NNc1cc(Cl)ccc1Cl		> 100		> 100		> 100		> 100		> 100		> 100		> 100		> 100		> 100		> 100
CCC(C)(C)c1ccc(OCCCCCCN2CCNCC2)cc1	1.73	3.23	1.76	3.21	1.68	3.45	2.6	13.8	9.73	27.1	1.88	3.5	1.93	4.8	2.63	7.29	1.7	3.93	1.94	3.6
O=C(Nc1ccc(CO)cc1)c1coc2ccccc2c1=O	> 100	> 100	> 100	> 100	> 100	> 100	> 100	> 100	> 100	> 100	> 100	> 100	> 100	> 100	> 100	> 100	> 100	> 100	> 100	> 100
N#CC(=NCCO)C1=C(O)c2ccccc2C1=O		> 100		> 100		> 100		> 100		> 100		> 100		> 100		> 100		> 100		> 100
COCCOc1cnc2ccn([C@H](C)c3nnc4c(F)cc(-c5cnn(C)c5)cn34)c(=O)c2c1	> 100	> 100	> 100	> 100	> 100	> 100	> 100	> 100	> 100	> 100	24.4	> 100	70.6	> 100	> 100	> 100	> 100	> 100	> 100	> 100
[Au+].[Au+].[Au+].[c-]1nccn1Cc1ccccc1.[c-]1nccn1Cc1ccccc1.[c-]1nccn1Cc1ccccc1	1.73	3.11	1.56	3.08	9.03		17.4	34.4	11.6	38.8	7.75	39.9	15	28.4	3.48	7.92	3.82	25	3.35	7.08
CCn1c(CO)nn(-c2cc(O[C@@H](C)C(F)(F)F)c(C(=O)Nc3c(F)cccc3Cl)cc2F)c1=O	< 0.0197	> 78	< 0.01		< 0.01	> 100	< 0.01	> 100	8.47	> 100	< 0.01	> 100	1.02	> 100	< 0.0113	> 100	< 0.01	> 100	> 32.2	> 100
Cc1cc(I)cc(CN(C)CCCN2CCOCC2)c1O	27.6	> 100	29.8	> 100	36.3	> 100	42.9	> 100	72.4	> 100	29.6	> 100	22.1	94.4	20.7	72.6	18	39.5	16.2	32.9
CC(=O)O[C@H](C[C@H](C(C)C)N(C)C(=O)[C@@H](NC(=O)[C@H]1CCCCN1C)C(C)C)c1nc(C(=O)N[C@@H](Cc2ccccc2)C[C@H](C)C(=O)O)c(CCOCc2ccccc2)s1	< 0.001	> 10	< 0.001	> 10	< 0.001		< 0.001	> 10	< 0.001	> 10	< 0.001		0.00486	> 10	0.00109	> 10	< 0.001	> 10	< 0.001	> 10
O=C(COc1ccc(/C=C2\CSc3ccccc3C2=O)cc1)Nc1nccs1	14	27	1.77	3.41	6.93	19.5	3.97	28.9	17.3	31.1	2.96	8.99	2.24	6.73	1.38	2.67	3.11	> 100	15	31.4
C=CCSS/C=C/CS(=O)CC=C (stereo not drawn)		33.4		29.9		> 100		> 100		> 100		> 100		> 100		> 100		> 77.9		> 100
